Test results as given in patent US5366975A, “Invertebrate phenylethanolamine transporter and the use thereof” (priority 1992, dated 1994).
Structures can show the parent of a compound that is named as a salt. Where two headings read alike, the source gives them in different places.

What was measured:
[1] = tested on: tobacco hornworms (Manducca sexta); design: species or system Manduca sexta; conditions: in vivo
[2] = tested on: Gs -coupled OA receptors; conditions: Manduca, a sensitive species; cited from earlier work
[3] = tested on: adenylate cyclase; conditions: cockroach, a resistant species; cited from earlier work
[4] = tested on: Manducca eggs; assay: Ovicidal assay; format: in vivo, Manduca sexta; conditions: 3% cocaine
Description: Test agents were tested for ovicidal activity by dipping groups of 10-50 Manducca eggs in drug solutions for 60 seconds and then determining the percentage of eggs which produced viable larvae. Alternatively, the eggs may be sprayed with the test agent and then placed on artificial media to hatch. A compound with active ovicidal activity was one which decreased the percentage of eggs hatched, relative to control.

[5] = tested on: firefly lantern; assay: Firefly lantern assay (OA-stimulated light emission); format: in vivo, P. pyralis; conditions: fixed dose of cocaine injected simultaneously with OA into isolated firefly tails; zero Ca++/high Mn++
Description: To measure the effects of drugs on firefly light emission, an isolated tail (terminal 3 abdominal segments containing the light organ) of a fresh adult P. pyralis male was mounted on a […] stainless steel needle and placed at the focal point of an optical system connected to a photometer-photomultiplier-chart recorder combination (see Nathanson, J. A., Characterization of octopamine-sensitive adenylate cyclase: Development of a potent and selective class of octopamine-2 receptor agonists with toxic effects in insects, Proc. Natl. Acad. Sci. U.S.A. 82: 599-603 (1985)). Drug (dissolved in insect saline, see Carlson, A.D., Effect of adrenergic drugs on the lantern of the larvae of the Photinus firefly, J. Exp. Biol. 48: 381-387 (1968)) was injected (3-5 μl) into the abdominal cavity dorsal to the lantern and light emission was recorded for 45 minutes or until it peaked, following which the next (larger) dose of drug was injected. In the case of animals injected with drugs other than octopamine, following the last dose, […] of octopamine (a maximally effective dose) was injected. Light production is expressed as radiance, each unit approximately equal to 1.6 nanowatts, as measured in a solid angle of 0.033 steradiants. […]

[6] = tested on: mosquito larvae; assay: Antilarval activity on mosquito larvae; format: in vivo
Description: Five to ten 2-5-day old mosquito larvae, reared from eggs, were placed in small bottles containing 3 ml of water, 2 ml of air space, and a perforated cap open to the air. The compound of interest was dissolved in water or appropriate solvent and added to make a final concentration of from 0.00001 to 1%. The bottles were capped and observed at daily intervals for the number of living larvae, pupae, and emerging adults. After two weeks, the final number of adults emerging as a percentage, relative to control, is plotted as a function of drug concentration.

[7] = tested on: octopamine reuptake transporter; format: cell-based, Blaberus; conditions: 100 μM cocaine; ±S.E.M. of triplicate determinations; control 13.6±1.7
[8] = tested on: octopamine reuptake transporter; format: biochemical, cockroach

Row | Compound | % leaf remaining [1] | RANK ORDER ANTIFEEDING EFFECT IN MANDUCA [1] | antifeeding effect [1] | further results
1 | 1-(2-[bis-(4-fluorophenyl)methoxy]ethyl)-4-(3-phenyl-2-propenyl)piperazine [GBR 12909] | ~95% | GBR > COC = DMI = AMT > DSP = XYL = | – | –
2 | NCCc1c[nH]c2ccc(O)cc12 [5-HT, serotonin] | – | – | – | antifeeding effect compared to OA [1]: significantly weaker than OA
3 | CN(C)CCC=C1c2ccccc2CCc2ccccc21 [AMT, amitriptyline] | ~100% | GBR > COC = DMI = AMT > DSP = XYL = | – | –
4 | NCCc1ccc(O)c(O)c1 [DA, dopamine] | – | – | no antifeeding effects | antifeeding effect of addition to cocaine [1]: no further increase in antifeeding effect
5 | Cc1cc(Cl)ccc1N=CN [DDCDM, didemethylchlordimeform] | – | – | – | potency relative to OA (full OA agonist) [2]: 20 fold; potency in activating adenylate cyclase relative to OA [3]: much weaker than OA
6 | CNCCCN1c2ccccc2CCc2ccccc21 [DMI, desmethylimipramine] | ~80% | GBR > COC = DMI = AMT > DSP = XYL = | – | –
7 | CCN(CCCl)Cc1ccccc1Br [DSP-4] | ~100% | GBR > COC = DMI = AMT > DSP = XYL = | – | –
8 | COC(=O)C1=CC[C@@H]2CC[C@H]1N2C [Ecgonidine methyl ester mesylate, (1 R)-8-methyl-8-azabicyclo[3,2,1]oct-2-ene-2-carboxylic acid methyl ester mesylate] | – | – | no antifeeding effect | –
9 | CN1[C@H]2CC[C@@H]1[C@@H](C(=O)O)[C@H](O)C2 [Ecgonine hydrochloride, (-)-beta-hydroxy-1-alpha-H, 5-alpha-H-tropane-2-beta-carboxlic acid hydrochloride] | – | – | no antifeeding effect | –
10 | NC[C@H](O)c1ccc(O)c(O)c1 [NE, norepinephrine] | – | – | – | antifeeding effect compared to OA [1]: significantly weaker than OA
11 | COC(=O)[C@H]1[C@@H](OC(=O)c2ccccc2)C[C@@H]2CC[C@H]1N2C [cocaine] | – | GBR > COC = DMI = AMT > DSP = XYL = | – | behavior of larvae on sprayed leaves [1]: marked behavioral abnormalities; time after which animals died [1]: 48 to 72 h; percent dead ova [4]: greater than 95%; leftward shift in the OA dose-response curve (factor) [5]: about 10; percent larvae surviving to mature adulthood ([6]; 0.01% cocaine in water): approximately 50%; adults produced ([6]; 0.1% cocaine in water): no adults were produced; total uptake of octopamine [7]: 9.6 ±1.4 pmol/mg protein; inhibition of sodium-dependent octopamine uptake ([8]; 10 μM cocaine): about 25%; inhibition of sodium-dependent octopamine uptake ([8]; 100 μM cocaine): about 68%
12 | CN1CCC(=C2c3ccccc3C=Cc3ccccc32)CC1 [cyproheptadine] | ~55% | – | – | –
13 | CNCCC(Oc1ccc(C(F)(F)F)cc1)c1ccccc1 (stereo not drawn) [fluoxetine] | ~85% | FLUOX >>MAZ | – | –
14 | CCN(CC)CC(=O)Nc1c(C)cccc1C [lidocaine] | – | – | – | antifeeding inhibition [1]: 15%
15 | OC1(c2ccc(Cl)cc2)c2ccccc2C2=NCCN21 (stereo not drawn) [mazindol] | – | FLUOX >>MAZ | no antifeeding activity | –
16 | CCN(CC)CCOC(=O)c1ccc(N)cc1 [procaine] | – | – | only lidocaine showed any activity | –
